# Several values for one entry are separate records, joined by “and”; a condition that tells them apart may be missing. Equal entries are not always repeated. Entries after “also recorded” stand apart in the source; their conditions may differ.
# Experiments:
# [1] = tested on: mesenteric lymph node cells; experiment: Mesenteric lymph node cell proliferation with α1(II) CB peptide mixture; assay type: in vivo, mice; conditions: FIG. 12
# DBA/1 mice [2] = experiment: NSAID inhibition of oral tolerance induction to collagen II; arthritic joints scored; assay type: in vivo
# Description: To determine whether tolerance induction to orally fed bovine CII in DBA/1 mice would be abrogated by orally fed NSAID, 3 groups of 20-22 DBA/1 mice were fed (by gavage) eight doses (Monday, Tuesday, Thursday, and Friday for 2 weeks) of the following: Placebo (saline) in the a.m. and Placebo (0.1 M HAc) in the p.m.; Placebo (saline) in the a.m. and 10 μg native bovine CII in the p.m.; or piroxicam (2.4 μg/gm) in the a.m. and native bovine CII (10 μg) in the p.m. After 1 week, all mice were immunized (intradermally at the base of tail) with 100 μg of bovine CII emulsified in complete Freund's adjuvant. Animals were placed in coded cages and were scored by a blinded observer twice weekly for the number of arthritic joints (joints swollen, red, and/or deformed).
# spleen cells = experiment: IFNγ production by spleen cells of fed, CII-immunized mice cultured with α1(II) CB peptide mixture (ELISA); assay type: in vivo; conditions: FIG. 8
# Source text: To assess the effect of oral feeding of piroxicam to another group of mice fed Placebo or CII on spleen cell IFNγ production in a manner similar to the experiment in FIG. 7, four groups of mice (4 mice per group) were gavaged 8 days over 2 weeks with the following: Piroxicam a.m.—CII p.m.; Piroxicam a.m.—HAc p.m.; Saline a.m.—CII p.m.; or Saline a.m.—HAc p.m. After 1 week rest, all mice were immunized at the base of the tail with a CII—complete Freund's adjuvant emulsion. After 14 days, mice ere sacrificed, and spleen cells were isolated and set up in culture with PBS or α1(II)CB peptide mixture. After 72 h culture, harvested supernatants ere analyzed for IFNγ levels by ELISA.
# Peyer's patch cells = experiment: Peyer's patch cell / normal spleen cell co-culture proliferation with α1(II) CB peptide mixture (3H thymidine); assay type: in vivo; conditions: cells from mice fed piroxicam plus CII vs CII alone or piroxicam alone; p<0.03; FIG. 11
# Description: To assess the status of the GALT in these three groups of mice, Peyer's patch cells were isolated from each animal, and set up (2.5×10^5/ml) in quadruplicate in co-culture with normal DBA/1 spleen cells (2×10^6/ml) with addition of recombinant murine IL2 (10 U/ml). PBS (as a control) or 50 μg/ml bovine α1(II) CB peptide mixture were added to quadruplicate wells in 96 round bottom well plates. After 3 days, cultures were pulsed with ^3H thymidine and harvested onto paper filters 24 h later. The “stimulation index” was calculated for each mouse by dividing the cpm of α1(II) CB peptide mixture culture by the cpm of the PBS control culture for each mouse. […] Thus, the marked increase in the stimulation index of Peyer's patch cells with DBA/1 spleen cells in the presence of α1(II) CB peptide mixture is quite exceptional and unexpected.
# DBA/1 mice [3] = experiment: Persistent NSAID effect on oral tolerance; arthritic joints after late CII immunization; assay type: in vivo; conditions: FIG. 10
# Description: To determine whether chronic feeding of piroxicam with CII would have a persistent effect on tolerance induction to CII in DBA/1 mice, three groups of 10-11 DBA/1 mice were fed 8 doses of CII over two weeks (as above) on two occasions separated by 6 months: piroxicam (2.4 μg/gm) a.m. and Placebo (0.1M HAc, 100 μl) p.m.; Placebo (saline) a.m. and native bovine CII (10 μg) p.m; or piroxicam (2.4 μg/gm) a.m. and native bovine CII (10 μg) p.m. Three months after the second 8 dose feeding, each mouse was immunized (intradermally at base of tail) with 100 μg native bovine CII emulsified in complete Freund's adjuvant. Mice were placed in coded cages and scored twice weekly by a blinded observer for numbers of arthritic joints.
# PBMC = experiment: Oral type I collagen in SSc patients; change in IL-10 production by antigen-stimulated PBMC; assay type: in vivo, human
# Description: Samples from 26 patients from a trial of oral type I collagen (CI) in patients with diffuse systemic sclerosis (SSc) who took 500 μg/day CI for 12 months were collected. […] No patients were on DMARDs, biologies, NSAIDS or prednisone.
# Patients with ROT1 AA, GG or GA genotype had IL-10 measured of IL-PBMC cultures stimulated by α1(I) CB mixture, α2(I) CB mixture, or native CI after receiving oral CI for 12 months minus the values of IL-10 in the supernatants of PBMC cultures stimulated with the same antigens at baseline before oral CI was administered to the SSc patients.
# [4] = Phase II oral CI tolerance clinical trial in SSc; change in MRSS; assay type: in vivo, human; conditions: CI treated vs placebo treated completers, Late Phase ROT1AA patients deleted; Wilcoxon Rank Sum test; FIG. 16
# Source text: In the Phase II oral CI tolerance clinical trial at 12 months, 79 SSc patients were genotyped of the 168 enrolled in the clinical trial. Seven of the 23 ROT1AA genotype were in the Late Phase category, and deleted from the results.
# [5] = group mean, Genotype AA (N = 6)
# [6] = individual SSc patients, Genotype AA, after 12 months oral CI 500 μg/day minus baseline
# [7] = individual SSc patients, Genotype GG or GA, after 12 months oral CI 500 μg/day minus baseline
# [8] = patients with ROT1 AA genotype, oral bovine CI 500 ug/day for 12 months
compound,measurement,setting,value
CN1C(C(=O)Nc2ccccn2)=C(O)c2ccccc2S1(=O)=O [piroxicam],proliferation in response to α1(II) CB peptide mixture,[1]; mice fed either CII or piroxicam alone,did not proliferate
same,stimulation by α1(II) CB peptide mixture,[1]; mice fed piroxicam plus CII,marked stimulation
same,oral tolerance (OT) induction,"DBA/1 mice [2]; DBA/1 mice fed CII, FIG. 7 / similar studies (data not shown)",abrogation of certain forms of oral tolerance
same,arthritic joints,"DBA/1 mice [2]; piroxicam 2.4 μg/gm a.m. + CII 10 μg p.m., eight doses, FIG. 7",significantly more arthritic joints
same,IFNγ production by spleen cells cultured with α1(II) CB peptide mixture,spleen cells; fed with Placebo (alone),reduced production of IFNγ
same,IFNγ production by spleen cells stimulated with α1(II) CB peptide mixture,spleen cells; piroxicam orally fed to mice being fed oral CII,dramatic increase
same,stimulation by α1(II) CB peptide mixture (stimulation index),Peyer's patch cells,marked stimulation
same,oral tolerance,DBA/1 mice [3],persistent abrogation of oral tolerance
same,arthritic joints at week 7 and 8 after immunization,"DBA/1 mice [3]; fed piroxicam plus CII 9 and 3 months before vs Placebo plus CII, p<0.04 at 8 weeks",significantly more arthritic joints
type I collagen [CI],"IL-10 production change, Bovine Native CI",PBMC; [5],-825 ± 338 pg/mL
same,"IL-10 production change, Bovine α1(I) CB Mix",PBMC; [5],-622 ± 480 pg/mL
same,"IL-10 production change, Bovine α2(I) CB Mix",PBMC; [5],-975 ± 627 pg/mL
same,"IL-10 production change, Bovine α1(I) CB Mix","PBMC; group mean, Genotype GG or GA",30 ± 119 pg/mL
same,"IL-10 production change, Bovine α2(I) CB Mix","PBMC; group mean, Genotype GG or GA",22 ± 156 pg/mL
same,"IL-10 production change, Bovine Native CI","PBMC; group mean, Genotype GG or GA (BB or BA)",27 ± 97 pg/mL
same,"IL-10 production change, Bovine Native CI",PBMC; [6],−1726 pg/ml and +70 pg/ml and −920 pg/ml and −233 pg/ml and −1886 pg/ml and −253 pg/ml
same,"IL-10 production change, Bovine α1(I) CB Mix",PBMC; [6],−342 pg/ml and −19 pg/ml and −611 pg/ml and −112 pg/ml and −2942 pg/ml and +295 pg/ml
same,"IL-10 production change, Bovine α2(I) CB Mix",PBMC; [6],−1692 pg/ml and +28 pg/ml and −494 pg/ml and +490 pg/ml and −3736 pg/ml and −448 pg/ml
same,"IL-10 production change, Bovine Native CI",PBMC; [7],−135 pg/ml and +566 pg/ml and −334 pg/ml and +192 pg/ml (2×) and +103 pg/ml and +386 pg/ml and −1564 pg/ml and +233 pg/ml and +21 pg/ml and +237 pg/ml and +150 pg/ml and −94 pg/ml and +32 pg/ml and −282 pg/ml and +232 pg/ml and −52 pg/ml and +43 pg/ml and +269 pg/ml and +341 pg/ml
same,"IL-10 production change, Bovine α1(I) CB Mix",PBMC; [7],−314 pg/ml and +410 pg/ml and −104 pg/ml and −391 pg/ml and +529 pg/ml and +216 pg/ml and −968 pg/ml and +347 pg/ml and −397 pg/ml and +1364 pg/ml and +108 pg/ml and −205 pg/ml and −81 pg/ml and −561 pg/ml and +582 pg/ml and −46 pg/ml and −538 pg/ml and −227 pg/ml and +663 pg/ml and +221 pg/ml
same,"IL-10 production change, Bovine α2(I) CB Mix",PBMC; [7],−388 pg/ml and +203 pg/ml and −86 pg/ml and −180 pg/ml and +859 pg/ml and +546 pg/ml and −1000 pg/ml and +261 pg/ml and −2021 pg/ml and +1460 pg/ml and +145 pg/ml and −113 pg/ml and +141 pg/ml (2×) and −509 pg/ml and +5 pg/ml and +381 pg/ml and +252 pg/ml and −115 pg/ml and −415 pg/ml
same,IL-10 production by PBMC cultured with native bovine CI and α2(I) CB mixture,PBMC; [8],did not upregulate IL-10 production; also recorded: deficient upregulation of IL-10 production
same,IL-10 production by PBMC cultured with α1(I) CB mixture,PBMC; [8],trend toward defective production
same,change in MRSS at 12 months from baseline values,[4],significant difference
